Data reported in patent publication US20140235630A1, “COMPOSITIONS AND METHODS FOR THE TREATMENT OF PROLIFERATIVE DISEASES” (Beth Israel Deaconess Medical Center, Inc., priority 2011, published 2014).

Tests used:
HCC1937 cells = assay: DNA damage response immunoblots with or without ionizing radiation (10 Gy); type: cell-based, human
Procedure: FIG. 5A are immunoblots showing the effects of Compound A, ATM inhibitor KU-55933, and their combination on the DNA damage response. HCC1937 were treated for 18 hours with Compound A at 2.5 μM, KU55933 at 10 μM, or their combination, subjected to ionizing irradiation with 10 Gy or mock, lysed 6 hours later, and subjected to immunoblotting. […] Immunoblots were performed using the Nupage System (Invitrogen). The protein concentration was determined using Bradford reagent (Biorad). A total of 20 μg of protein were loaded, except for PAR, Phospho ATM and Phospho DNA-PK/PRKDC western blots, where 40 μg were loaded. Tumor tissue lysates were prepared similarly with the exception of tissue homogenization by using an electric homogenizer for 30 secs after addition of the lysis buffer. Primary antibodies used for western blotting were total AKT (9272), Cleaved […] 3 (9661), total ERK (4695), Phospho AKT Ser473 (4058), Phospho ERK Thr202/Tyr204 (9106), Phospho-Histone H2AX Ser139 (2577), PTEN (9559) from Cell Signaling. Phospho ATM […] (2152-1), Phospho DNA-PK/PRKDC […] (3892-1) from Epitomics, Inc. CD31 (ab28364), Actin (ab6276), INPP4B (ab81269) from Abcam; pADPr (sc56198) from Santacruz Biotechnology; and Ki-67 (RM-9106) was purchased from Thermo Scientific.

[1] = tested on: mouse lung tumors with transgenic H1047R mutant of PIK3CA; details: within two days; cited from earlier work
blood vessels in tumors = details: in vivo; cited from earlier work

Structure (SMILES)	H2AX phosphorylation in response to ionizing radiation (HCC1937 cells; 18 hours pre-treatment, 10 Gy, lysed 6 hours later)	auto-phosphorylation of ATM (HCC1937 cells; KU-55933 10 μM, 18 hours)	FDG-PET signal [1]	sprouting of new blood vessels in tumors (blood vessels in tumors)
O=c1cc(-c2cccc3c2Sc2ccccc2S3)oc(N2CCOCC2)c1 [KU-55933, reference compound]	prevented the increase	decrease	–	–
Cn1c(=O)n(-c2ccc(C(C)(C)C#N)cc2)c2c3cc(-c4cnc5ccccc5c4)ccc3ncc21 [BEZ235]	–	–	caused a reduction in the FDG-PET signal	inhibits the sprouting of new blood vessels
